Laboratory results: patent US20240294533A1, “2-(HET)ARYL-SUBSTITUTED CONDENSED HETEROCYCLE DERIVATIVES AS PEST CONTROL AGENTS” (Bayer Aktiengesellschaft, priority 2021, published 2024)

Assays:
Type in all cases: in vivo
Ctenocephalides felis = Ctenocephalides felis oral test; conditions: 100 ppm, oral via cattle blood, after 2 days
Description: Ctenocephalides felis—Oral Test Solvent: dimethyl sulfoxide An appropriate active ingredient formulation is produced by mixing 10 mg of active ingredient with 0.5 ml of dimethyl sulfoxide. Dilution with citrated cattle blood gives the desired concentration. About 20 unfed adult cat fleas (Ctenocephalides felis) are placed into a chamber which is closed at the top and bottom with gauze. Onto the chamber is placed a metal cylinder with its bottom end closed with parafilm. The cylinder contains the blood/active ingredient formulation, which can be imbibed by the fleas through the parafilm membrane. The cylinder is heated to 37° C., while the flea chambers are kept at room temperature. After 2 days, the kill rate in % is determined relative to the untreated control. 100% means that all of the fleas have been killed; 0% means that none of the fleas have been killed.

Spodoptera frugiperda [1] = assay: Spodoptera frugiperda spray test (maize leaf discs); conditions: Spodoptera frugiperda, foliar, 168 h, after 7 days, read-out: efficacy
Outline: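 Maize leaf discs sprayed with compound formulated in acetone/DMF with alkylaryl polyglycol ether emulsifier (1000 ppm) in water, then infested with fall armyworm caterpillars after drying. Efficacy (% caterpillars killed) scored after 7 days; 100% means all killed, 0% none.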

Spodoptera frugiperda [2] = assay: Spodoptera frugiperda spray test (SPODFR), comparative; conditions: 168 h, cotton leaves, after 7 days, read-out: % Efficacy
Description: Spodoptera frugtiperda—Spray Test (SPODFR) Solvent: 14 parts by weight of dimethylformamide Emulsifier: alkylaryl polyglycol ether An appropriate active ingredient formulation is produced by dissolving 1 part by weight of active ingredient with the stated parts by weight of solvent and making the solution up to the desired concentration with water containing an emulsifier concentration of 1000 ppm. Further test concentrations are produced by diluting the formulation with emulsifier-containing water. If the addition of ammonium salts or/and penetrants is required, these are each added in a concentration of 1000 ppm to the formulation solution. Cotton leaves (Gossypium hirsutum) are sprayed with an active ingredient formulation of the desired concentration and populated with caterpillars of the armyworm (Spodoptera frugiperda). After 7 days, the kill in % is determined. 100% means that all caterpillars have been killed; 0% means that none of the caterpillars have been killed.

Plutella xylostella = Plutella xylostella spray test (PLUTMA), comparative; conditions: 168 h, 0.16 ppm, cabbage leaves, after 7 days
Description: Plutella xylostella Spray Test (PLUTMA) Solvent: 14 parts by weight of dimethylformamide Emulsifier: alkylaryl polyglycol ether An appropriate active ingredient formulation is produced by dissolving 1 part by weight of active ingredient with the stated parts by weight of solvent and making the solution up to the desired concentration with water containing an emulsifier concentration of 1000 ppm. Further test concentrations are produced by diluting the formulation with emulsifier-containing water. If the addition of ammonium salts or/and penetrants is required, these are each added in a concentration of 1000 ppm to the formulation solution. Cabbage leaves (Brassica oleracea) are sprayed with an active ingredient formulation of the desired concentration and infected with larvae of the diamondback moth (Plutella xylostella). After 7 days, the kill in % is determined. 100% means that all caterpillars have been killed; 0% means that none of the caterpillars have been killed.

Diabrotica balteata = Diabrotica balteata drench test; conditions: 20 ppm, soil drench, maize, after 8 days
Description: Diabrotica balteata—Drench Test Solvent: 7 parts by weight of dimethylformamide Emulsifier: 2 parts by weight of alkylaryl polyglycol ether An appropriate active ingredient formulation is produced by mixing 1 part by weight of active ingredient with the specified amounts of solvent and emulsifier, and diluting the concentrate to the desired concentration with water, it being necessary to take account of the volume of soil which is drenched. It should be ensured that a concentration of 40 ppm of emulsifier in the soil is not exceeded. Further test concentrations are produced by diluting with water. 5 […] (Zea mays) in each case are sown into pots filled with earth, and the next day the pots are watered with the active ingredient preparation of the desired concentration. After one day, about 25 L2 larvae of the banded cucumber beetle (Diabrotica balteata) are added. After 8 days, efficacy in % is determined. 100% means that all 5 plants have germinated and grown; 0% means that none of the plants has emerged.

Musca domestica = Musca domestica test; conditions: 100 ppm, adult houseflies, after 2 days
Description: Musca domestica Test Solvent: dimethyl sulfoxide An appropriate active ingredient formulation is produced by mixing 10 mg of active ingredient with 0.5 ml of dimethyl sulfoxide and diluting the concentrate with water to the desired concentration. Vessels containing a sponge treated with sugar solution and the desired concentration of active compound formulation are populated with 10 adult houseflies (Musca domestica). After 2 days, the kill rate in % is determined relative to the untreated control. 100% means that all of the flies have been killed; 0% means that none of the flies have been killed.

Phaedon cochleariae = Phaedon cochleariae spray test; conditions: 100 g/ha, Chinese cabbage leaf discs, after 7 days
Description: Phaedon cochleariae—Spray Test
Solvent: 78.0 parts by weight of acetone • • 1.5 parts by weight of dimethylformamide
Emulsifier: alkylaryl polyglycol ether
An appropriate active ingredient formulation is produced by dissolving 1 part by weight of active ingredient with the stated parts by weight of solvent and making the solution up to the desired concentration with water containing an emulsifier concentration of 1000 ppm. Further test concentrations are produced by diluting the formulation with emulsifier-containing water.
Discs of Chinese cabbage leaves (Brassica pekinensis) are sprayed with an active ingredient formulation of the desired concentration and, after drying, populated with larvae of the mustard beetle (Phaedon cochleariae).
After 7 days, efficacy in % is determined. 100% means that all the beetle larvae have been killed; 0% means that no beetle larvae have been killed.

Boophilus microplus = Boophilus microplus injection test; conditions: 20 μg/tick, after 7 days, laying of fertile eggs
Description: Boophilus microplus—Injection Test Solvent: dimethyl sulfoxide An appropriate active ingredient formulation is produced by mixing 10 mg of active ingredient with 0.5 ml of solvent and diluting the concentrate with solvent to the desired concentration. 1 μl of the active ingredient solution is injected into the abdomen of 5 engorged adult female cattle ticks (Boophilus microplus). The ticks are transferred into dishes and kept in a climate-controlled room. Efficacy is checked after 7 days by laying of fertile eggs. Eggs which are not visibly fertile are stored in a climate-controlled cabinet until the larvae hatch after about 42 days. Efficacy of 100% means that none of the ticks has laid any fertile eggs; 0% means that all the eggs are fertile.

Structure (SMILES): CCS(=O)(=O)c1ccc(-n2ncn(-c3ccc(Cl)cc3)c2=O)nc1-c1nc2cc(C(F)(F)C(F)(F)F)cnc2n1C [Example I-23]
- efficacy (kill rate) (Ctenocephalides felis): 100%
- pest or weed control at 100 g/ha (Spodoptera frugiperda [1]): 100%
- Emax at 0.8 ppm (Spodoptera frugiperda [2]): 100%
- efficacy at 0.16 ppm (Plutella xylostella): 90%
- efficacy (Diabrotica balteata): 100%
- efficacy (kill rate) (Musca domestica): 100%
- efficacy (Phaedon cochleariae): 100%
- efficacy (Boophilus microplus): 90%
